These results are taken from US20030017976A1, “Therapeutic properties of liposome-encapsulated immunomodulators” (priority 1998, published 2003).

Marks after values point to notes of the source that are not given here.

The subject of one data set is human blood monocytes. In words: ELISAs for TNF-α, IL-1β and IL-6 in human blood monocytes. In kind it is cell-based. As to the method:
Blood-cells buff coats were obtained on the day of collection from the Gulf Coast Regional Blood Center (Houston, Tex.). The buffy coats were diluted with HBSS and layered on to 15 ml of prescreened entotoxin-free lymphocyte separation medium (Ficoll-Hypaque; density: 1.077). After 10 min of centrigugation at 1500×g, the mononuclear fractions were collected, washed once, and resuspended in 20 ml of elutriation medium (2% human albumin-100 U/mi penicillin and 100 μg/ml streptomycin in PBS). Monocyte-rich fractions were isolated by countercurrent elutriation using a JE-6B elutriation rotator (B3eckman) as described in detail previously (Fidler, I. et al. Prog. Clin. Biol. Res. (1989) 288:169). At a speed of 3000 rpm and flow rate of 41 ml/min, the monocyte fraction was obtained; it contained >90-95% monocytes as identified by nonspecific esterase staining morphological examination; they were >95% viable as measured by the trypan blue exclusion test. The cells were incubated in serum-free EMEM for 18 h prior to assays.
After overnight incubation in serum-free EMEM, monocytes plated at the density of 1×10^5/38-mm^2well /200 μl of EMEM (96-well plates) were treated as indicated in the Results section. The culture supernatants were harvested and used immediately or stored at −70° C. The supernatants were diluted at 1:5 or 1:10 and assayed for cytokines using ELISA kits according to the manufacturer's instructions.

Another data set deals with human monocytes. As to the kind of experiment: Northern blot of cytokine mRNA in monocytes. Type of data set: cell-based. Particulars: LPS 100 ng/ml, MLV-JBT3002 500 nmol/ml, JBT3002 1 ng/ml; 1-3 h. As to the method:
Total RNA was extracted using Tri reagent™ kit according to the manufacturer's instructions (Molecular Research Center, Inc., Cincinnati, Ohio). […] Cytokine and GAPDH and mRNA were detected using cDNA probes of Human TNF-α, IL-1β, IL-6 and rat glyceraldehyde-3-phosphate dehydrogenase (GAPDH) labeled by nick translation with α-^32P-CTP. Hybridizations were performed as described (Dong, Z. et al. J Natl. Cancer Inst. (1994) 86:913).

The subject of the next data set is C57BL/6 mice. As to the kind of experiment: Prevention of CPT-11 induced intestinal damage and morbidity by oral immunomodulator. In kind it is in vivo, mouse. Particulars: oral saline or JBT3002 0.1, 1.0 and 10 μg/dose in PC liposomes, then CPT-11 100 mg/kg i.p. 4 days. As to the method: Experimental Design and Methods. […] Tissue was harvested 7 days after the last injection (small intestine and colon distal to the cecum). Histology was prepared. Some mice were monitored for the presence of drug toxicity.
Example 6 has shown that 100, 150, and 200 mg/kg at 4 consecutive i.p. administrations are highly toxic to C57BL/6 mice.

The test system of the next data set is tumor cells. As to the kind of experiment: Macrophage-mediated tumor cytotoxicity, target cells not named. Type of data set: cell-based. Particulars: available in MLV to 1×10^5 cells. As to the method: Cytotoxicity was assayed by measuring release of radioactivity from target cell DNA as described previously (Dong Z, et al. J Exp Med (1993) 177:1071-7). Briefly, tumor target cells in their exponential growth phase were incubated in medium containing 0.25 μCi/ml of [^3H]TdR (sp. Act. 2 Ci/mmol) (ICN Biomedicals, Inc., Irvine, Calif.) for 24 h. The cells were washed three times with HBSS to remove unbound radioactivity and then harvested by trypsinization (0.25% trypsin in 0.02% EDTA), washed, and resuspended in medium. Cells were plated (at 1×10^4/well) into wells containing control or test macrophages to achieve an E/T cell ratio of 10:1. At this density, macrophages incubated in medium (control) were not cytotoxic to neoplastic cells (Weinstein SL, et al. Proc Natl Acad Sci USA (1991) 88:4148-52; Dong Z, et al. JLeukoc Biol (1993) 53:53-60). […] The lysate was harvested with harvester 96 (Tomtec, Orange, Conn.) and counted for residual radioactivity in a liquid scintillation counter. Macrophage-mediated cytotoxicity was calculated as follows: […]
Efficient activation of macrophages by LPS requires priming by IFN-γ (Saiki I, et al. J Immunol (1985) 135:684-8). […] Tumor cytotoxicity was measured 72 h after the addition of radiolabeled tumor cells to the activated macrophages. […]

The test system of another data set is CT-26 colon carcinoma. In words: Therapy of experimental liver metastasis of CT-26 colon carcinoma with CPT-11 and oral JBT 3002.
Where [1] appears, read: Table 15, oral JBT 3002 0.05 μg/dose 3 consecutive days and/or CPT-11 100 mg/kg 4 daily i.p., day 21.
The mark [2] stands for this setting: Table 16, oral JBT3002 0.05 μg dose thrice weekly 3 weeks and/or CPT-11 100 mg/kg i.p. once a week, day 24.

Consider “N-hexadecanol-S-[2(R)-3-diodecanoyloxypropyl]-L-cysteinyl-L-alanyl-D-isoglutaminyl-glycyl-taurine sodium salt [JBT3002]”, for which, in the data set on human blood monocytes (free-form JBT3002 1 ng/ml or MLV-JBT3002 100 nmol/well of 1 mg/300 μmol lipid), the “incubation time at which TNF-α protein was detected” value is listed as 2 h. Also, the “concentration range inducing TNF-α production” value with human blood monocytes (monocytes treated for 8 h) was 0.001 to 10 ng/mL. Further, the “serum dependence of cytokine production” value in the data set on human blood monocytes (serum-free EMEM vs 5% FBS) was “not significantly altered in the absence of serum”. The “mRNA for TNF-α, IL-1β, and IL-6” value in the data set on human monocytes was “High levels of mRNA for TNF-α, IL-1β, and IL-6”. Also, the “intestinal toxicity (histology)” value in the data set with C57BL/6 mice is recorded as “the intestines were normal”. Further, in the data set on tumor cells, the “minimal concentration of JBT3002 for significant activation of tumoricidal properties in PEM” value is reported as 1.5 ng. Moreover, the “dose producing similar therapeutic effects as 1.0 μg/dose of MLV-JBT 3002” value in the data set with CT-26 colon carcinoma (Table 11) was 0.01 μg/dose. In the data set with CT-26 colon carcinoma (setting [1]), the “Liver metastasis Incidence” value was 9/10, the Liver weight is recorded as 1.6 ± 0.2^e g, the “Spleen tumor Incidence” value is 10/10 and the “Spleen tumor Mean tumor volume” value is 88 ± 34^f mm^3. In the data set on CT-26 colon carcinoma (setting [2]), the “Liver metastasis Incidence” value is recorded as 9/10, the Liver weight came to 4.2 ± 1.6 g, the “Spleen tumor Incidence” value is 8/10 and the “Spleen tumor Mean tumor volume” value stood at 241 ± 84 mm^3. Further, in the data set on CT-26 colon carcinoma (Tables 12 and 14), the “potency relative to liposomal formulation” value is recorded as “more potent than liposomal formulation”.
